This passage reports IC50 results from patent US20080114007A1 (priority 2006, published 2008).

The target in the assay is CSF-1R (Homo sapiens, UniProt P07333). The assay is described as follows: Peptide (non-phosphorylated) assay, fluorescence polarization competition immunoassay. It is filed as biochemical. As to conditions: 0.7 nM CSF-1R, 308 μM SYEGNSYTFIDPTQ peptide, 1 mM ATP, 80 min; mean of at least three determinations; read-out: c-fms Peptide IC50. The procedure: The kinase reaction was initiated by adding 1 μL of 10 mM ATP in assay buffer. […] Positive and negative control wells were included on each plate, where 4% DMSO in assay buffer was substituted for the compound; in addition, positive control wells received 1.2 μL of 50 mM EDTA before the start of the reaction.
Chain of CSF-1R (P07333 20-972): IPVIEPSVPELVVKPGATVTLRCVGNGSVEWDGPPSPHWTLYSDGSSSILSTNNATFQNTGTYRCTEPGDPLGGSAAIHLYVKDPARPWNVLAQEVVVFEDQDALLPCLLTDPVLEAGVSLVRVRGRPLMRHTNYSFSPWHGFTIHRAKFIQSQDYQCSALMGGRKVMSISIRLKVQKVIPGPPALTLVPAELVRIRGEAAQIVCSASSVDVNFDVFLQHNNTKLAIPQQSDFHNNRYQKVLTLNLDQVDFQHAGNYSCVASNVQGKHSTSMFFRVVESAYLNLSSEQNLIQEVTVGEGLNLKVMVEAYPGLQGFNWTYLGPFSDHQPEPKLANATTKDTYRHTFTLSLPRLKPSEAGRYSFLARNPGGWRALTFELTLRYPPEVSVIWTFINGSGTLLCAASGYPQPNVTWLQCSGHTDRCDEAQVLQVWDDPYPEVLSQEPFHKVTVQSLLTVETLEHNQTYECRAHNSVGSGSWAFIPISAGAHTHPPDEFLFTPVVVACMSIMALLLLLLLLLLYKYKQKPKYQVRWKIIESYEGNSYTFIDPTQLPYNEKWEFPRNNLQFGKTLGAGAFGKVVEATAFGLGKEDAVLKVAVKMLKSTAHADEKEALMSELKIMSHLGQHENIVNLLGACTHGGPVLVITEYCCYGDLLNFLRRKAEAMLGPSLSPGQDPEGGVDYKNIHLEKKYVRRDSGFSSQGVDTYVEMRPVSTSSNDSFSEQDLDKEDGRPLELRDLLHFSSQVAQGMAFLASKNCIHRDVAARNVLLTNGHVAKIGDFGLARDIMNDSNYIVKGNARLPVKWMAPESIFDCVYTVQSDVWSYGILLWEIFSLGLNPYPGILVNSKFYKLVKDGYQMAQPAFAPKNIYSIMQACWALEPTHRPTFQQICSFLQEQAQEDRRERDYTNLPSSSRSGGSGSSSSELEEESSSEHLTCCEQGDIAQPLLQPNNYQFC
The plates were covered and incubated at room temperature for 80 min. Reactions were stopped by addition of 1.2 μL of 50 mM EDTA. Each well then received 10 μL of a 1:1:3 mixture of 10× anti-phosphotyrosine antibody, 10×PTK green tracer, and FP dilution buffer, respectively (Cat. # P2837, Invitrogen, Carlsbad, Calif.). The plates were covered, incubated for 30 min at room temperature, and the fluorescence polarization was read on an Analyst plate reader (Molecular Devices).

The structures appear in SMILES notation. pIC50: −log10 of the molar value.

What is called pIC50 is −log10 of the IC50, conventionally taken in molar units. Turning to `CONC(=O)c1cn(-c2ccc(C)c(C)c2)c2nc(Nc3ccc(CCN4CCCC4=O)cc3)ncc2c1=O` [Cpd 50, 8-(3,4-dimethyl-phenyl)-5-oxo-2-{4-[2-(2-oxo-pyrrolidin-1-yl)-ethyl]-phenylamino}-5,8-dihydro-pyrido[2,3-d]pyrimidine-6-carboxylic acid methoxy-amide], the pIC50 was 8.92.

Regarding `CONC(=O)c1cn(-c2ccc(C)c(C)c2)c2nc(Nc3ccc(CCN4CCCC4)cc3)ncc2c1=O` [Cpd 51, 8-(3,4-dimethyl-phenyl)-5-oxo-2-[4-(2-pyrrolidin-1-yl-ethyl)-phenylamino]-5,8-dihydro-pyrido[2,3-d]pyrimidine-6-carboxylic acid methoxy-amide], the pIC50 is 9.20.

For the compound `CONC(=O)c1cn(-c2ccc(C)c(C)c2)c2nc(Nc3ccc(CCN4CCN(C)CC4)cc3)ncc2c1=O` [Cpd 52, 8-(3,4-dimethyl-phenyl)-2-{4-[2-(4-methyl-piperazin-1-yl)-ethyl]-phenylamino}-5-oxo-5,8-dihydro-pyrido[2,3-d]pyrimidine-6-carboxylic acid methoxy-amide], the pIC50 was 9.10.

Regarding `CCONC(=O)c1cn(-c2ccc(C)c(C)c2)c2nc(Nc3ccc(CCN4CCN(C)CC4)cc3)ncc2c1=O` [Cpd 53, 8-(3,4-dimethyl-phenyl)-2-{4-[2-(4-methyl-piperazin-1-yl)-ethyl]-phenylamino}-5-oxo-5,8-dihydro-pyrido[2,3-d]pyrimidine-6-carboxylic acid ethoxy-amide], the pIC50 was 9.30.

As to `CCc1ccc(-n2cc(C(=O)NOC)c(=O)c3cnc(Nc4ccc(CCN5CCCC5=O)cc4)nc32)cc1` [Cpd 54, 8-(4-ethyl-phenyl)-5-oxo-2-{4-[2-(2-oxo-pyrrolidin-1-yl)-ethyl]-phenylamino}-5,8-dihydro-pyrido[2,3-d]pyrimidine-6-carboxylic acid methoxy-amide], the pIC50 was 8.74.

For the compound `CCc1ccc(-n2cc(C(=O)NOC)c(=O)c3cnc(Nc4ccc(CCN5CCCC5)cc4)nc32)cc1` [Cpd 55, 8-(4-ethyl-phenyl)-5-oxo-2-[4-(2-pyrrolidin-1-yl-ethyl)-phenylamino]-5,8-dihydro-pyrido[2,3-d]pyrimidine-6-carboxylic acid methoxy-amide], the pIC50 is 9.29.

For the compound `CCc1ccc(-n2cc(C(=O)NOC)c(=O)c3cnc(Nc4ccc(CCN5CCN(C)CC5)cc4)nc32)cc1` [Cpd 56, 8-(4-ethyl-phenyl)-2-{4-[2-(4-methyl-piperazin-1-yl)-ethyl]-phenylamino}-5-oxo-5,8-dihydro-pyrido[2,3-d]pyrimidine-6-carboxylic acid methoxy-amide], the pIC50 is 8.96.

Turning to `CCONC(=O)c1cn(-c2ccc(CC)cc2)c2nc(Nc3ccc(CCN4CCN(C)CC4)cc3)ncc2c1=O` [Cpd 57, 8-(4-ethyl-phenyl)-2-{4-[2-(4-methyl-piperazin-1-yl)-ethyl]-phenylamino}-5-oxo-5,8-dihydro-pyrido[2,3-d]pyrimidine-6-carboxylic acid ethoxy-amide], the pIC50 was 9.22.

Regarding `CCc1ccc(-n2cc(C(=O)NOC(C)C)c(=O)c3cnc(Nc4ccc(C5CCNCC5)cc4)nc32)cc1` [Cpd 58, 8-(4-ethyl-phenyl)-5-oxo-2-(4-piperidin-4-yl-phenylamino)-5,8-dihydro-pyrido[2,3-d]pyrimidine-6-carboxylic acid isopropoxy-amide], the pIC50 was 8.80.

Turning to `CCc1ccc(-n2cc(C(=O)NOC(C)C)c(=O)c3cnc(Nc4ccc(C5CCN(C(C)=O)CC5)cc4)nc32)cc1` [Cpd 59, 2-[4-(1-acetyl-piperidin-4-yl)-phenylamino]-8-(4-ethyl-phenyl)-5-oxo-5,8-dihydro-pyrido[2,3-d]pyrimidine-6-carboxylic acid isopropoxy-amide], the pIC50 is 8.35.

As for `CCc1ccc(-n2cc(C(=O)NOC(C)C)c(=O)c3cnc(Nc4ccc(C5CCN(S(C)(=O)=O)CC5)cc4)nc32)cc1` [Cpd 60, 8-(4-ethyl-phenyl)-2-[4-(1-methanesulfonyl-piperidin-4-yl)-phenylamino]-5-oxo-5,8-dihydro-pyrido[2,3-d]pyrimidine-6-carboxylic acid isopropoxy-amide], the pIC50 was 8.15.

`CONC(=O)c1cn(-c2ccc3c(c2)CCC3)c2nc(Nc3ccc(CCN4CCN(C)CC4)cc3)ncc2c1=O` [Cpd 61, 8-indan-5-yl-2-{4-[2-(4-methyl-piperazin-1-yl)-ethyl]-phenylamino}-5-oxo-5,8-dihydro-pyrido[2,3-d]pyrimidine-6-carboxylic acid methoxy-amide]: the pIC50 is 9.17.

Regarding `CC(C)ONC(=O)c1cn(-c2ccc3c(c2)CCC3)c2nc(Nc3ccc(CCN4CCN(C)CC4)cc3)ncc2c1=O` [Cpd 63, 8-indan-5-yl-2-{4-[2-(4-methyl-piperazin-1-yl)-ethyl]-phenylamino}-5-oxo-5,8-dihydro-pyrido[2,3-d]pyrimidine-6-carboxylic acid isopropoxy-amide], the pIC50 was 9.28.

With `CN1CCN(CCc2ccc(Nc3ncc4c(=O)c(C(=O)N5CCCCC5)cn(-c5ccc6c(c5)CCC6)c4n3)cc2)CC1` [Cpd 64, 8-indan-5-yl-2-{4-[2-(4-methyl-piperazin-1-yl)-ethyl]-phenylamino}-6-(piperidine-1-carbonyl)-8H-pyrido[2,3-d]pyrimidin-5-one], the pIC50 was 6.74.

With `CN1CCN(CCc2ccc(Nc3ncc4c(=O)c(C(=O)NCCO)cn(-c5ccc6c(c5)CCC6)c4n3)cc2)CC1` [Cpd 65, 8-indan-5-yl-2-{4-[2-(4-methyl-piperazin-1-yl)-ethyl]-phenylamino}-5-oxo-5,8-dihydro-pyrido[2,3-d]pyrimidine-6-carboxylic acid (2-hydroxy-ethyl)-amide], the pIC50 is 9.17.

`O=C(NCCO)c1cn(-c2ccc3c(c2)CCC3)c2nc(Nc3cccc(N4CCNCC4)c3)ncc2c1=O` [Cpd 66, 8-indan-5-yl-5-oxo-2-(3-piperazin-1-yl-phenylamino)-5,8-dihydro-pyrido[2,3-d]pyrimidine-6-carboxylic acid (2-hydroxy-ethyl)-amide]: the pIC50 was 8.60.

With `CONC(=O)c1cn(-c2ccc3c(c2)CCC3)c2nc(Nc3ccc(C[C@H]4COC(=O)N4)cc3)ncc2c1=O` [Cpd 67, (S)-8-indan-5-yl-5-oxo-2-[4-(2-oxo-oxazolidin-4-ylmethyl)-phenylamino]-5,8-dihydro-pyrido[2,3-d]pyrimidine-6-carboxylic acid methoxy-amide], the pIC50 is 9.00.

As for `CCONC(=O)c1cn(-c2ccc3c(c2)CCC3)c2nc(Nc3ccc(C[C@H]4COC(=O)N4)cc3)ncc2c1=O` [Cpd 68, (S)-8-indan-5-yl-5-oxo-2-[4-(2-oxo-oxazolidin-4-ylmethyl)-phenylamino]-5,8-dihydro-pyrido[2,3-d]pyrimidine-6-carboxylic acid ethoxy-amide], the pIC50 was 9.15.

Turning to `CONC(=O)c1cn(-c2ccc3c(c2)CCC3)c2nc(Nc3ccc(C4CCN(C(C)=O)CC4)cc3)ncc2c1=O` [Cpd 69, 2-[4-(1-acetyl-piperidin-4-yl)-phenylamino]-8-indan-5-yl-5-oxo-5,8-dihydro-pyrido[2,3-d]pyrimidine-6-carboxylic acid methoxy-amide], the pIC50 is 8.92.

As for `CCONC(=O)c1cn(-c2ccc3c(c2)CCC3)c2nc(Nc3ccc(C4CCN(C(C)=O)CC4)cc3)ncc2c1=O` [Cpd 70, 2-[4-(1-acetyl-piperidin-4-yl)-phenylamino]-8-indan-5-yl-5-oxo-5,8-dihydro-pyrido[2,3-d]pyrimidine-6-carboxylic acid ethoxy-amide], the pIC50 is 8.77.

Turning to `CONC(=O)c1cn(-c2ccc3c(c2)CCC3)c2nc(Nc3ccc(CCS(C)(=O)=O)cc3)ncc2c1=O` [Cpd 71, 8-indan-5-yl-2-[4-(2-methanesulfonyl-ethyl)-phenylamino]-5-oxo-5,8-dihydro-pyrido[2,3-d]pyrimidine-6-carboxylic acid methoxy-amide], the negative logarithm of the IC50 (pIC50) was 9.19.

With `CONC(=O)c1cn(-c2ccc3c(c2)CCC3)c2nc(Nc3ccc(CCN4CCC5(CC4)OCCCO5)cc3)ncc2c1=O` [Cpd 73, 2-{4-[2-(1,5-dioxa-9-aza-spiro[5.5]undec-9-yl)-ethyl]-phenylamino}-8-indan-5-yl-5-oxo-5,8-dihydro-pyrido[2,3-d]pyrimidine-6-carboxylic acid methoxy-amide], the pIC50 was 9.08.

Regarding `CONC(=O)c1cn(-c2ccc3c(c2)CCC3)c2nc(Nc3ccc(CCN(C)C4CCOCC4)cc3)ncc2c1=O` [Cpd 74, 8-indan-5-yl-2-(4-{2-[methyl-(tetrahydro-pyran-4-yl)-amino]-ethyl}-phenylamino)-5-oxo-5,8-dihydro-pyrido[2,3-d]pyrimidine-6-carboxylic acid methoxy-amide], the pIC50 was 9.21.

Take `CONC(=O)c1cn(-c2ccc3c(c2)CCC3)c2nc(Nc3ccc(C4CCNCC4)cc3)ncc2c1=O` [Cpd 75, 8-indan-5-yl-5-oxo-2-(4-piperidin-4-yl-phenylamino)-5,8-dihydro-pyrido[2,3-d]pyrimidine-6-carboxylic acid methoxy-amide]: the pIC50 is 9.28.

Consider `CONC(=O)c1cn(-c2ccc3c(c2)CCC3)c2nc(Nc3ccc(C4CCN(S(C)(=O)=O)CC4)cc3)ncc2c1=O` [Cpd 76, 8-indan-5-yl-2-[4-(1-methanesulfonyl-piperidin-4-yl)-phenylamino]-5-oxo-5,8-dihydro-pyrido[2,3-d]pyrimidine-6-carboxylic acid methoxy-amide], for which the pIC50 is 9.08.

With `CONC(=O)c1cn(-c2ccc3c(c2)CCC3)c2nc(Nc3ccc(CCS(=O)(=O)NC(C)C)cc3)ncc2c1=O` [Cpd 77, 8-indan-5-yl-2-[4-(2-isopropylsulfamoyl-ethyl)-phenylamino]-5-oxo-5,8-dihydro-pyrido[2,3-d]pyrimidine-6-carboxylic acid methoxy-amide], the pIC50 was 9.02.
